Measurements reported in US9885703B2, “Evaluation method and screening method for sphingosine-1-phosphate 1 (S1P1) receptor agonists” (MEIJI SEIKA PHARMA CO., LTD., priority 2013, dated 2018).
Where two headings read alike, the source gives them in different places.

How the values were obtained:
[1] = biological target: T1, S1P1 receptor coupled to Gαi1 (Homo sapiens, UniProt P21453); experiment: Gα subtype-specific S1P1 receptor agonist activity (BRET, NPL 7), HEK 293T cells co-expressing S1P1 receptor, Gαi1, Gγ2 and Gβ1; format: cell-based; settings: Gαi1 expressed
T1 construct: expressed in transfected cells; host or cells: HEK 293T cells
Source text: (§1) In the present invention, an agonist activity specific to a Gαi subtype can be measured, for example, according to the method described in the present Example 1 (2) (the method described in NPL 7). To be more specific, by allowing cells to express an S1P1 receptor and a particular Gα subtype together with Gγ2 and Gβ1, an agonist activity can be measured on the basis of a difference in percentage between the Gα protein and the Gβγ protein caused by an S1P1 receptor agonist.
(§2) Next, the Gα protein subtype-specific S1P1 receptor agonist activities were evaluated according to the method described in NPL 7. Note that the expression conditions followed the section of “Supplementary Methods” in NPL 7, and the measurement conditions followed the section of “Bioluminescence resonance energy transfer measurement.”
(§3) First, HEK 293T cells were allowed to co-express an S1P1 receptor, a particular Gα subtype (Gαi1, Gαi2, or Gαi3), Gγ2, and Gβ1. Then, on the basis of a difference in percentage between the Gα protein and the Gβγ protein caused by the endogenous agonist S1P, the agonist activity was measured.

[2] = biological target: T2, S1P1 receptor coupled to Gαi2 (Homo sapiens, UniProt P21453); experiment: Gα subtype-specific S1P1 receptor agonist activity (BRET, NPL 7), HEK 293T cells co-expressing S1P1 receptor, Gαi2, Gγ2 and Gβ1; format: cell-based; settings: Gαi2 expressed
T2 construct: expressed in transfected cells; host or cells: HEK 293T cells
Source text: as §1, §2, §3

S1P1 receptor = biological target: T3, S1P1 receptor (Homo sapiens, UniProt P21453); experiment: General S1P1 receptor agonist activity, CHO cells expressing S1P1 receptor (method of Experimental Example 1 of PTL 1); format: cell-based; settings: method of PTL 1
T3 construct: expressed in transfected cells; host or cells: CHO cells
Source text: As a general method for evaluating an S1P1 receptor agonist activity, there has been known a method which uses CHO cells expressing a S1P1 receptor, and the like to measure an agonist activity on the basis of binding to the receptor and a signal transduction activity through the binding (PTL 1).

[3] = biological target: T4, S1P1 receptor coupled to Gαi3 (Homo sapiens, UniProt P21453); experiment: Gα subtype-specific S1P1 receptor agonist activity (BRET, NPL 7), HEK 293T cells co-expressing S1P1 receptor, Gαi3, Gγ2 and Gβ1; format: cell-based; settings: Gαi3 expressed
T4 construct: expressed in transfected cells; host or cells: HEK 293T cells
Source text: as §1, §2, §3

S1P receptor = settings: reported generally, varies with evaluation method; read-out: 50% activation concentration (EC50 value) as an agonist activity against an S1P receptor; cited from earlier work
[4] = tested on: number of lymphocytic cells in blood; experiment: Efficacy evaluation: number of lymphocytic cells in blood after oral administration; format: in vivo; settings: male SD rats; for ED50: Rattus norvegicus
Description: BAF312 or the compound B was orally administered to male SD rats at different doses. After 3, 6, and 24 hours, and the number of lymphocytic cells in blood was counted using a blood cell counter.

complete AV block = experiment: Cardiotoxicity evaluation: AV block in guinea pigs under anesthesia; format: in vivo, male guinea pigs; settings: anesthetized guinea pigs, 0.01 mg/kg by infusion for 10 minutes
Description: (§4) In this model, the guinea pigs used were highly responsive to an S1P1 receptor, and further the model was capable of reliable detection of S1P1 receptor-dependent cardiotoxicity under anesthesia. An electrocardiograph and a pacing device were attached to the male guinea pigs whose breathings were artificially controlled under anesthesia, and the drugs were administered.

[5] = Blood concentration in the guinea pig cardiotoxicity model; format: in vivo; settings: male, whole blood, intravenous, guinea pigs, 0.01 mg/kg infusion for 10 minutes
Description: as §4
In addition, the blood concentrations of BAF312 and the compound B when the administrations were completed were respectively 17 nM and 91 nM. The blood concentrations after 1 hour were respectively <4 nM and 27 nM.

T3 sequence (P21453 whole entry): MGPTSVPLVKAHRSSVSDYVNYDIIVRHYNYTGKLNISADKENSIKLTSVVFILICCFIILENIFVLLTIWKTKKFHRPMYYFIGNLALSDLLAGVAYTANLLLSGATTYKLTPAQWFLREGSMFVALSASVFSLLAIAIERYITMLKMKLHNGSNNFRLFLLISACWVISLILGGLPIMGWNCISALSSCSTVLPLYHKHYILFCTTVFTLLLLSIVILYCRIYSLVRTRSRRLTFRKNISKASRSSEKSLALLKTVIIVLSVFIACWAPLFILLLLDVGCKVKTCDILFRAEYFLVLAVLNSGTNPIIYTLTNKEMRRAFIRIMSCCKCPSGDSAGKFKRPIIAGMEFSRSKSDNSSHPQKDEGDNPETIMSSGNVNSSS
T2 sequence (P21453 whole entry): as above
T2 sequence (P04899 2-355 partner limits assumed): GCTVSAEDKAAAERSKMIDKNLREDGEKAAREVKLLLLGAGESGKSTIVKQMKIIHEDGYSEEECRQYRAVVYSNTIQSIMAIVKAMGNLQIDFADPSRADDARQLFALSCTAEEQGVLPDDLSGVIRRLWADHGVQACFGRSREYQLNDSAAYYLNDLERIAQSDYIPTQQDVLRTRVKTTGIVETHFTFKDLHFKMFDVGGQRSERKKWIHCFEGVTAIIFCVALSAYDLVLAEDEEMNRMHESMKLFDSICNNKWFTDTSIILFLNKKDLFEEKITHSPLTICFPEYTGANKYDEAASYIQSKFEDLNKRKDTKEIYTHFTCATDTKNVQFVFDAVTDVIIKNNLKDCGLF
T2 sequence (P62873 2-340 partner limits assumed): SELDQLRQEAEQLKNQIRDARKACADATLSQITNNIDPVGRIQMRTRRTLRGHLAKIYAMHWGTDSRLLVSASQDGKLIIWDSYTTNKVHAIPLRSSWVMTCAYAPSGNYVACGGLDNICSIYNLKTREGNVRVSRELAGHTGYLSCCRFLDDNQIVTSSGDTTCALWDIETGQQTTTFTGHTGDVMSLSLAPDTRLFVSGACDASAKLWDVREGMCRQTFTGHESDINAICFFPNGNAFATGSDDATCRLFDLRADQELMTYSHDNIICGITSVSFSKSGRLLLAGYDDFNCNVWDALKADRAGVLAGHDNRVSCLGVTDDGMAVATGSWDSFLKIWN
T2 sequence (P59768 2-68 partner limits assumed): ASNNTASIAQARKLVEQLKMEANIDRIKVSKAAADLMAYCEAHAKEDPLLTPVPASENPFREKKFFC
T1 sequence (P21453 whole entry): as the sequence (P21453 whole entry) above
T1 sequence (P63096 2-354 partner limits assumed): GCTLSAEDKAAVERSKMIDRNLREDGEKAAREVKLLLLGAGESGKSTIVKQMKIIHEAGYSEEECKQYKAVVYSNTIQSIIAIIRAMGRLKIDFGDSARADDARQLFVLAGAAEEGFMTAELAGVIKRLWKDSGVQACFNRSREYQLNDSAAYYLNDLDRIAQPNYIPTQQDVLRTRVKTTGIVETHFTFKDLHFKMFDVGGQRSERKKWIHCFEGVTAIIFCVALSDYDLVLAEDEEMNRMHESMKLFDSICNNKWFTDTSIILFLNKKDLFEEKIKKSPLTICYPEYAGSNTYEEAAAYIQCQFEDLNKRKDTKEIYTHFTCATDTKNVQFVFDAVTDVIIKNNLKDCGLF
T1 sequence (P62873 2-340 partner limits assumed): as the sequence (P62873 2-340 partner limits assumed) above
T1 sequence (P59768 2-68 partner limits assumed): as the sequence (P59768 2-68 partner limits assumed) above
T4 sequence (P21453 whole entry): as the sequence (P21453 whole entry) above
T4 sequence (P08754 2-354 partner limits assumed): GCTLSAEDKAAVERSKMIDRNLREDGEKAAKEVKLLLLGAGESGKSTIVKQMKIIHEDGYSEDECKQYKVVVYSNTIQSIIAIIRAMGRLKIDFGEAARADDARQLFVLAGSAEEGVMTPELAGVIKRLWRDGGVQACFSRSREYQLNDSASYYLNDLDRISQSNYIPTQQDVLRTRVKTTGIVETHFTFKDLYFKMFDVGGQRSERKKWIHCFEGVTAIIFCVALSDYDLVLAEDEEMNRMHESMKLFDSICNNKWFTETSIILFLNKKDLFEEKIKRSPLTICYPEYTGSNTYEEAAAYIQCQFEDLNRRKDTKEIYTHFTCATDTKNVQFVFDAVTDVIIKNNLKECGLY
T4 sequence (P62873 2-340 partner limits assumed): as the sequence (P62873 2-340 partner limits assumed) above
T4 sequence (P59768 2-68 partner limits assumed): as the sequence (P59768 2-68 partner limits assumed) above

EC50 [1] | EC50 [2] | EC50 (S1P1 receptor) | EC50 [3] | SMILES | EC50 (S1P receptor) | ED50 ([4]; 6 hours, read-out: dose for suppressing the number of lymphocytic cells by 50% (ED50) after 6 hours) | ED50 ([4]; 24 hours, read-out: dose for suppressing the number of lymphocytic cells by 50% (ED50) after 24 hours) | effective blood concentration after 24 hours ([4]; 24 hours, calculated) | expression of complete AV block (cases) (complete AV block; four cases) | continuation of complete AV block (complete AV block; until 1 hour) | concentration at 1 h ([5]; after 1 hour) | concentration at 10 min ([5]; end of administration, read-out: blood concentration when the administration was completed)
261 nM | 14.6 nM | 6.4 nM | 8.4 nM | CCCCCCCCCCCCC/C=C/[C@@H](O)[C@@H](N)COP(=O)(O)O [Compound S1P, sphingosine-1-phosphate] | ~10 nM | – | – | – | – | – | – | –
122 nM | 81 nM | 3 nM | 27 nM | CCc1cc(/C(C)=N/OCc2ccc(C3CCCCC3)c(C(F)(F)F)c2)ccc1CN1CC(C(=O)O)C1 [BAF312, Siponimod] | – | 0.1 mg/kg | > 1 mg/kg | > 208 nM | four out of four cases | continued in all the cases until 1 hour elapsed | < 4 nM | 17 nM
